Measurements: PMC6987146, “Potent inhibition of HIV replication in primary human cells by novel synthetic polyketides inspired by Aureothin” (Scientific Reports, 2020)

Key:
HIV-1LAI [1] = assay: EASY-HIT assay: infectious virus production by LC5-RIC reporter cells exposed to HIV-1LAI; type: cell-based; conditions: for Infectious virus production, median (fluorescent signal normalized to untreated virus-exposed cultures): 50 nM, LC5-RIC, secondary plates 72 h after transfer
Procedure: To identify natural compounds with anti-HIV activity we screened a collection of 10,000 natural compounds: Anti-HIV activity was evaluated by determining compound effects on infectious virus production by LC5-RIC cells which are highly susceptible for HIV and contain a DsRed1-encoding reporter gene activated by HIV-infection[6]–[8]. For screening, cultures of LC5-RIC reporter cells were first exposed to virus in the presence of the compound (first-step of the assay). Subsequently, supernatants of these cultures were transferred to secondary plates with uninfected LC5-RIC cells. The fluorescent signal of the cultures in the secondary plates served as a measure of compound effects on infectious virus production.
Anti-HIV activities of compounds were profiled in LC5-RIC cells with the EASY-HIT assay as described in[6]. Briefly, LC5-RIC cells were first exposed to virus and compounds (first step of the assay). Compound effects on infectious virus production were determined by transferring aliquots of supernatants of compound-treated cultures to secondary plates and measurement of fluorescent signal intensities in secondary plates after 72 h (second step of the assay). Fluorescent signal intensities determined for compound-treated cultures were normalized to those determined for untreated virus-exposed cultures.

HIV-1LAI [2] = assay: Inhibition of HIV infection of human PBMCs (infectious virus production, read out on LC5-RIC cells); type: cell-based; conditions: mean ± SD
Procedure: To evaluate anti-HIV efficacies of test compounds in primary human target cells, stimulated PBMCs were seeded in 96-well plates at a density of 500,000 cells per well, different #7concentrations of the compound (serial dilutions) and virus inoculum (MOI of 0.5) added to the PBMCs and cultures incubated for 48 h. Infectious virus production was quantified by transferring 35 µl of supernatant from the PBMC cultures to LC5-RIC cells, seeded in black 96-well plates one day earlier. LC5-RIC cultures were then incubated for 72 h and analysed for DsRed1 reporter expression and anti-HIV activity calculated as described for the EASY-HIT assay.

[3] = CellTiter-Glo 2.0 cell viability assay in PBMC; type: cell-based, human; conditions: human
Procedure: (§1) The following assays were used to profile cell safety of compound treatment in HIV-exposed cultures (LC5-RIC or PBMC): (1) CellTox^TM Green Cytotoxicity Assay, Promega, measures binding of a fluorescent dye to DNA of cells with impaired membrane integrity; (2) CellTiter-Glo® 2.0 Assay, Promega, which measures the amount of ATP in viable cells after lysis using an assay with luminescence read-out. Cells were plated into black 96-well plates followed by overnight incubation at 37 °C, 5% CO2. Compounds dissolved in DMSO were screened at multiple concentrations from 0.6 to 10,000 nM at a final DMSO concentration of 0.04% followed by additional 48 h incubation. Both assays were performed according to manufacturer’s recommendations and consecutively in the above mentioned order. Cells were washed once with PBS between the assays.

[4] = CellTiter-Glo 2.0 cell viability assay in LC5-RIC cells; type: cell-based; conditions: human; Table S2; CellTiter-Glo 2.0; mean ± SD
Procedure: as §1

[5] = test system: integrated proviral HIV-1 DNA; assay: Integrated proviral HIV-1 DNA by Alu-PCR in LC5-RIC cells; type: cell-based; conditions: HIV-1LAI, 48 h, concentrations >2x IC90, normalized to DMSO
Procedure: Quantitative analysis of integrated copies of HIV proviral DNA by Alu-PCR was performed essentially as described in[46]. Briefly, LC5-RIC cells seeded at a density of 100,000 cells per well in 12-well plates and incubated for 24 h were exposed to test compounds and HIV-1LAI virus inoculum at an MOI of 0.5 and incubated for further 48 h at 37 °C, 5% CO2. Subsequently, cells were harvested and genomic DNA (gDNA) was extracted using the QIAamp DNA Mini Kit (QIAGEN) according to the manufacturer’s protocol. The relative amount of integrated proviral HIV-1 DNA was determined by two-step Alu-PCR[46]. The relative amounts of integrated proviral HIV-1 DNA in treated versus untreated samples were calculated by the 2^(−ΔΔCt) method, with ΔCT values representing CT (HIV) - CT (β-globin) for each sample and ΔΔCT values representing values of treated samples normalized to untreated samples.

[6] = test system: HIV-1 transcripts (unspliced, singly spliced, multiply spliced, all); assay: Relative levels of HIV-1 transcript classes by qRT-PCR in LC5-RIC cells; type: cell-based; conditions: HIV-1LAI, 48 h, vs untreated
Procedure: LC5-RIC cells were plated, treated with compounds and inoculated with virus as described for Alu-PCR above. Cells were then harvested and RNA was extracted using the RNeasy Mini Kit (QIAGEN), according to the manufacturer’s protocol. For cDNA synthesis, 1 µg of total RNA was reverse transcribed by SuperScript II reverse transcriptase (Invitrogen) according to manufacturer’s recommendations. qRT-PCR was performed with the Roche Light Cycler® 480II 96 (Version 1.5.0.39), using LightCycler® 480 SYBR Green I Mastermix (Roche). Quantitative PCR for HIV-1 transcripts was performed with primers specific for unspliced, singly spliced or multiply spliced HIV-1 transcripts as well as for ‘all HIV transcripts’; RNA Polymerase II transcripts were analysed as internal reference gene. Primer sequences are given in Supplementary Methods and binding sites shown in Supplementary Fig. S3. Data was analysed with the second derivative maximum method. The relative amount of HIV-1 transcripts in treated versus untreated samples was calculated by the 2^(−ΔΔCt) method, using RNA polymerase II as reference gene.
The following primers were used to perform the qRT-PCR analysis (primer sequences 5’ ? 3’): multiply spliced, forward: ATGGAGCCAGTAGATCCTAG, reverse: AGT CTC TCA AGC GGT GGT ^1; singly spliced, forward: GGc GGC GAC TGG AAG AGG C, reverse: CTATGATTACTATGGACCACA ^1; unspliced, forward: CTG AAG CGC GCA CGG CAA, reverse: GACGCTCTCGCACCCATCTC ^1; ‘all HIV transcripts’, forward: GTGTGTGGTAGATCCACAGATCAAGG, reverse: CCAGTCACACCTCAGGTACCTTTAAGACC ^2; RNA polymerase II, forward: GCA CCA CGT CCA ATG ACA T, reverse: GTG CGG CTG CTT CCA TAA ^3. See primer binding sites in different HIV transcripts in Fig. S1.

## CN1CC[C@H](c2c(O)cc(O)c3c(=O)cc(-c4ccccc4Cl)oc23)[C@H](O)C1 [Flavopiridol]
HIV-1LAI [1]
  Infectious virus production, median (fluorescent signal normalized to untreated virus-exposed cultures): 10.38
HIV-1LAI [1]; Human immunodeficiency virus 1, read-out: Anti-HIV in LC5-RIC, IC50
  IC50: 10.9 ± 0.5 nM
HIV-1LAI [2]; Human immunodeficiency virus 1, Table S2, PBMC, read-out: Anti-HIV in PBMC, IC50
  IC50: 35.6 ± 3.46 nM
[3]
  CC50 at 48 h: 120 ± 13.5 nM
[4]
  CC50 at 48 h: 127.4 ± 0.94 nM
[5]
  reduction of levels of integrated proviral DNA: did not reveal reduction of proviral DNA levels
[6]
  relative levels of multiply spliced HIV transcripts: much stronger inhibitory effect on levels of multiply spliced transcripts than compound #7

## COc1oc(C2C/C(=C/C(C)=C/c3ccc(C(F)(F)F)cc3)CO2)c(C)c(=O)c1C (stereo not drawn) [compound #7]
HIV-1LAI [1]
  Infectious virus production, median (fluorescent signal normalized to untreated virus-exposed cultures): 0.96
HIV-1LAI [1]; Human immunodeficiency virus 1, read-out: IC90, 90% inhibitory concentration
  IC90: 13.4 ± 1.75 nM
HIV-1LAI [1]; LC5-RIC cells exposed to HIV-1LAI, infectious virus production, mean ± SD, listed as #7, read-out: IC50, half maximal inhibitory concentration
  IC50: < 10 nM
HIV-1LAI [1]; LC5-RIC cells exposed to HIV-1LAI, infectious virus production, mean ± SD, read-out: IC50, half maximal inhibitory concentration
  IC50: 4.9 ± 0.16 nM
HIV-1LAI [2]; Human immunodeficiency virus 1, PBMC, read-out: IC90, 90% HIV-inhibitory concentration, human PBMCs exposed to HIV-1LAI
  IC90: < 45 nM
HIV-1LAI [2]; Human immunodeficiency virus 1, PBMC, human PBMCs exposed to HIV-1LAI, read-out: IC50, half maximal HIV-inhibitory concentration
  IC50: 10.3 ± 0.65 nM
HIV-1LAI [2]; read-out: IC90, 90% HIV-inhibitory concentration, human PBMCs exposed to HIV-1LAI
  IC90: 41 ± 1.23 nM
[3]; CellTiter-Glo 2.0, PBMC, read-out: Cell viability in PBMC, CC50
  CC50 at 48 h: > 10000 nM
[4]
  CC50 at 48 h: > 10000 nM
[5]
  reduction of levels of integrated proviral DNA: < 20%
[6]
  levels of singly spliced HIV transcripts: strongly diminished
  levels of unspliced HIV transcripts: strongly diminished
  overall abundance of HIV mRNAs (all transcripts primers): reduced the overall abundance of HIV mRNAs
  relative levels of multiply spliced HIV transcripts: did not reduce relative levels of multiply spliced transcripts
